Source: US20190117653A1, “SYSTEMS AND METHODS FOR TREATING BACTERIAL INFECTION” (priority 2016, published 2019)
Converted amounts (≈) assume the structure as drawn. Read-outs that look alike come from different tables or passages of the source.

Key:
Test in all cases: MIC with/without bovine pulmonary surfactant
Assay type in all cases: cell-based
E. coli ATCC 25922 = settings: Escherichia coli
Method: (§1) Antibacterial susceptibility testing was measured by JMI Labs (North Liberty, Iowa, USA). […] These clinical isolates were collected from US (n=4), Mexico (n=2), and Italy (n=1). Susceptibility testing was performed by broth microdilution in accordance with the Clinical and Laboratory and Standards Institute (CLSI) guidelines M07-A10 (2015) and the standard operating procedures at JMI laboratories. Minimum inhibitory concentrations (MICS) were based on CLSI criteria (2015). There are no published breakpoints for iclaprim. E. coli, K. pneumoniae, M. catarrhalis, E. faecalis, and S. aureus were tested in cation-adjusted Mueller-Hinton broth (CA-MHB). S. pneumoniae were tested in CA-MHB supplemented with 2.5-5% lysed horse blood, and H. influenza were tested in Haemophilus test medium. Quality control and interpretation of results were performed in accordance with CLSI M100-S26 (2016) methods. QC ranges for iclaprim were those approved by CLSI and published in M100-S26 (2016). Iclaprim and comparator antibiotic MIC results were within the CLSI published ranges against E. coli ATCC 25922, E. faecalis ATCC 29212, E. faecalis ATCC 33186, H. influenzae ATCC 49247, K. pneumoniae ATCC 700603 (ESBL phenotype), S. aureus ATCC 29213, and S. pneumoniae ATCC 49619. Isolates were tested with MIC panels (ThermoFisher Scientific, Cleveland, Ohio, USA) of comparator antibiotics (daptomycin and levofloxacin).
(§2) Because bovine pulmonary surfactant can introduce cloudiness to the MIC testing media, antimicrobial growth inhibition was also evaluated using the colorimetric metabolic indicator resazurin (Camlab Ltd., Cambridge, UK). […] S. pneumoniae panels were omitted from resazurin analysis because the color change was obscured by the lysed horse blood present in the test medium. Growth inhibition was then evaluated as a visible color change from blue (no growth) to pink (robust growth) and recorded as a MIC1z value.
(§3) The MICs of iclaprim, levofloxacin, and daptomycin were determined against Gram-positive and Gram-negative isolates.
(§4) A new vial of bovine pulmonary surfactant (BPS; Survanta®; Abbott Laboratories, Columbus, Ohio) was utilized for each independent experiment. Each vial was mixed thoroughly and a 100 μL aliquot was spread on an agar plate, which was incubated overnight to confirm sterility. […] The concentration of surfactant was expressed in terms of percent volume of Survanta® suspension, which consisted of phospholipid (25 mg/mL) and surfactant proteins (<1 mg/mL) in 0.9% sodium chloride solution (Goerke, 1998). MICs of daptomycin were determined in CAMHB with the Ca^2+ content adjusted to 50 mg/L.

E. faecalis ATCC 29212 = settings: Enterococcus faecalis
Method: as §1, §2, §3, §4

E. faecalis ATCC 33186 = settings: Enterococcus faecalis
Method: as §1, §2, §3, §4

H. influenzae ATCC 49247 = settings: Haemophilus influenzae
Method: as §1, §2, §3, §4

[1] = test system: M. catarrhalis Clinical Isolate 893806; settings: Moraxella catarrhalis, 2.5% v/v BPS, read-out: MIC, Resazurin: +BPS
Method: as §1, §2, §3, §4

S. aureus ATCC 29213 = settings: Staphylococcus aureus
Method: as §1, §2, §3, §4

[2] = test system: S. aureus Clinical Isolate 825189; settings: Staphylococcus aureus
Method: as §1, §2, §3, §4

## COc1cc(Cc2cnc(N)nc2N)c2c(c1OC)OC(C1CC1)C=C2 (racemic) [Iclaprim]
E. coli ATCC 25922; ATCC25922, 2.5% v/v BPS, read-out: MIC, CLSI: +BPS
  MIC: 0.5 µg/mL (≈ 1.41 µM)
E. coli ATCC 25922; ATCC25922, 2.5% v/v BPS, read-out: MIC, Resazurin: +BPS
  MIC: 1 µg/mL (≈ 2.82 µM)
E. coli ATCC 25922; ATCC25922, no BPS, read-out: MIC, CLSI
  MIC: 0.5 µg/mL (≈ 1.41 µM)
E. coli ATCC 25922; ATCC25922, no BPS, read-out: MIC, Resazurin
  MIC: 1 µg/mL (≈ 2.82 µM)
E. faecalis ATCC 29212; ATCC29212, 2.5% v/v BPS, read-out: MIC, Resazurin: +BPS
  MIC: ≤ 0.015 µg/mL
E. faecalis ATCC 29212; ATCC29212, no BPS, read-out: MIC, Resazurin
  MIC: ≤ 0.015 µg/mL
E. faecalis ATCC 33186; ATCC33186, 2.5% v/v BPS, read-out: MIC, Resazurin: +BPS
  MIC: ≤ 0.015 µg/mL
E. faecalis ATCC 33186; ATCC33186, no BPS, read-out: MIC, Resazurin
  MIC: 0.03 µg/mL (≈ 0.0846 µM)
H. influenzae ATCC 49247; ATCC49247, 2.5% v/v BPS, read-out: MIC, Resazurin: +BPS
  MIC: 0.25 µg/mL (≈ 0.705 µM)
H. influenzae ATCC 49247; ATCC49247, no BPS, read-out: MIC, Resazurin
  MIC: 0.25 µg/mL (≈ 0.705 µM)
[1]
  MIC: 8 µg/mL (≈ 22.6 µM)
S. aureus ATCC 29213; ATCC29213, 2.5% v/v BPS, read-out: MIC, CLSI: +BPS
  MIC: 0.06 µg/mL (≈ 0.169 µM)
S. aureus ATCC 29213; ATCC29213, 2.5% v/v BPS, read-out: MIC, Resazurin: +BPS
  MIC: 0.06 µg/mL (≈ 0.169 µM)
S. aureus ATCC 29213; ATCC29213, no BPS, read-out: MIC, CLSI
  MIC: 0.06 µg/mL (≈ 0.169 µM)
S. aureus ATCC 29213; ATCC29213, no BPS, read-out: MIC, Resazurin
  MIC: 0.06 µg/mL (≈ 0.169 µM)
[2]; 2.5% v/v BPS, read-out: MIC, CLSI: +BPS
  MIC: 0.12 µg/mL (≈ 0.339 µM)
[2]; 2.5% v/v BPS, read-out: MIC, Resazurin: +BPS
  MIC: 0.12 µg/mL (≈ 0.339 µM)
[2]; no BPS, read-out: MIC, CLSI
  MIC: 0.06 µg/mL (≈ 0.169 µM)
[2]; no BPS, read-out: MIC, Resazurin
  MIC: 0.06 µg/mL (≈ 0.169 µM)
